Key:
PPARG = target: T1, PPARG (Homo sapiens, UniProt P37231); assay: RT112/84 FABP4-NLucP reporter gene assay, unstimulated; format: cell-based
T1 construct: endogenous in cells; host or cells: RT112/84 bladder cancer cells (FABP4-NLucP knock-in clone)
T1 sequence (P37231 1-477 isoform P37231-2): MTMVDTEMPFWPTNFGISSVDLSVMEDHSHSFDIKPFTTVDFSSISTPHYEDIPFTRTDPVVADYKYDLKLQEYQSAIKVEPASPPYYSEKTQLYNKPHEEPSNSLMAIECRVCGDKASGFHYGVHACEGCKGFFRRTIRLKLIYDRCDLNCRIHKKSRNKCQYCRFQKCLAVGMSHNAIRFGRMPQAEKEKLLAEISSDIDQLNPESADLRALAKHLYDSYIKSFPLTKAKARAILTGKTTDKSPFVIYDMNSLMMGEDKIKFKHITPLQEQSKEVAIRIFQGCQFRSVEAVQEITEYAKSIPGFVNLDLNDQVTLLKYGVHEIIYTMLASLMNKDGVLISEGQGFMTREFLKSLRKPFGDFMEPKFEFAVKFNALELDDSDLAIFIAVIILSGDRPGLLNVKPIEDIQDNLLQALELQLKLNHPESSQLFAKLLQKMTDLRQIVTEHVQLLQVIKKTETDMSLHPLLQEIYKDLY
Excerpt: Next, a PPARG reporter cell line was engineered to enable higher throughput assays to evaluate PPARG transactivation. Briefly, a destabilized NanoLuc luciferase reporter gene was inserted into the 3′-UTR of the FABP4 gene in the RT112/84 bladder cancer cell line using CRISPR/Cas9 mediated homology-directed repair (FIG. 4A).
RT112-FABP4-NLucP Reporter Gene Assay: Reporter cell line was generated by engineering NanoLuc gene into the 3′ UTR of FABP4 in RT112/84 cells using CRISPR/Cas9 guided genome engineering. Single cell clones were generated and the clone with the widest dynamic range selected for use. Assays were performed by seeding 384-well plates with ˜10,000 cells per well in MEMalpha containing 10% FBS and dosing compounds at indicated concentration using HP D300 digital dispenser (HP/Tecan). 18-24 hours after dosing with compound, cells were assayed using NanoGlo Luciferase Assay Reagent (Promega Madison, WI) and plates were read using EnVision Multilabel Reader (PerkinElmer Waltham, MA).

[1] = target: T2, PPARG ligand-binding domain - TRAP220/MED1 coactivator peptide (Homo sapiens, UniProt P37231); assay: TR-FRET coactivator assay, TRAP220/MED1 peptide; format: biochemical
T2 construct: purchased ThermoFisher Scientific
T2 sequence (P37231 238-503 limits assumed): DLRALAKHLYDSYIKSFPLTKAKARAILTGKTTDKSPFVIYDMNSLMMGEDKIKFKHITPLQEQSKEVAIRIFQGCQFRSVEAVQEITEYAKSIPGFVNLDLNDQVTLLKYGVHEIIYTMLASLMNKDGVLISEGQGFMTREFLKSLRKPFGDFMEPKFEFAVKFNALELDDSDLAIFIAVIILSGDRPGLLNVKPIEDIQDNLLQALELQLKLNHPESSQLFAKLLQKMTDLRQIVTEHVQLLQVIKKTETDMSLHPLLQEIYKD

[2] = target: T3, PPARG ligand-binding domain (Homo sapiens, UniProt P37231); assay: TR-FRET PPARG competition binding assay; details: maximal concentration tested 10 uM
T3 sequence (P37231 238-503 limits assumed): T2 sequence (P37231 238-503 limits assumed)
Description: To evaluate binding affinity, a PPARG competition binding assay that measures displacement of a fluorescent PPARG ligand from the PPARG ligand-binding domain was used.
Biochemical Assays: The LanthaScreen TR-FRET PPAR gamma Competitive Binding Assay and LanthaScreen TR-FRET PPAR gamma Coactivator Assay were obtained from ThermoFisher Scientific. Assays were performed according to the manufacturer's protocol. In order to assay inverse-agonism, the Coactivator assay was modified by the use of fluorescently labeled co-repressor peptides (NCoR1 ID2 peptide, SMRT ID2 peptide) to convert from agonist mode (coactivator recruitment) into inverse-agonist mode (corepressor recruitment).

[3] = tested on: PPARG target gene expression in UM-UC-9 cells; assay: RNA sequencing of UM-UC-9 cells after 7 days dosing; format: cell-based, human; details: 500 nmol/L
Description: Next, the effects of long-term dosing on the transcriptional profile of the PPARG-amplified cell line, UMUC-9, were evaluated. Briefly, UM-UC-9 cells were treated for 7 days with various PPARG modulators dosed at 500 nmol/L and gene expression was analyzed using RNA sequencing. […] Genes that were more abundantly expressed upon treatment with inverse-agonists included ALPP, SPINK4, and ALDH1A3 (FIG. 5). […] In summary, the in vitro pharmacological properties of known PPARG modulators have been characterized and two distinct chemotypes with bona-fide inverse-agonist activity in PPARG-activated bladder cancer cells were identified.
RNAseq analysis: RNA was isolated using RNEasy (Qiagen) and an RNAseq library was prepared using NEBNext Ultra Directional RNA Library Prep Kit for Illumina and NEBNext Multiplex Oligos for Illumina (New England BioLabs). RNAseq sequencing was performed using an Illumina MiSeq instrument according to the manufacturers protocol. Sequence data was analyzed using Firehose (Broad Institute, Cambridge MA) to map transcripts and calculate RPKM (SW780 cDNA expression) or TPM (UM-UC-9).
For UM-UC-9 RNAseq experiment, the resulting reads were used to calculate transcript abundance in units of TPM (transcripts per million) (18), which were then adjusted using TMM normalization (19) for comparison. […]

UM-UC-9 cells = assay: Direct cell counting dose-response proliferation assay; format: cell-based, human
Description: To determine whether PPARG modulators affect the proliferation and/or viability of PPARG-activated bladder cancer cell lines, a direct cell counting-based assay was performed. This assay likely avoids potential artifacts associated with the use of an ATP content-based assay, given that PPAR modulators are known to regulate cellular metabolic activity. […] These IC50 values align well with the calculated IC50s from both the cell-based reporter gene assay (FIG. 8A) and the biochemical corepressor assay (FIG. 8D).
(§1) Proliferation Assays: To enable cell-counting experiments, cell lines were transduced with a lentiviral vector encoding nuclear-targeted GFP, TagGFP2-H2B (Evrogen), and stable pools generated following selection for puromycin resistance. Cell lines were maintained for at least 7 days following selection prior to expansion and seeding into 96- or 384-well plates for further analysis. For kinetic proliferation assays, 96-well plates (n 1% 4 per condition) were imaged and counted every two hours using IncuCyte Zoom (Essen BioScience). Media and compounds were replaced approximately every 3-4 days. For endpoint assays to measure dose-response, cells were plated in 384-well plates, dosed with compound, and upon reaching approximately 70% to 90% confluence in control wells, cells were either counted using fluorescence imaging (Incu-Cyte Zoom) or incubated with CyQuant (Thermo Fisher) at the indicated time and plates were read with a fluorescent plate reader.

[4] = tested on: PPARG-activated bladder cancer cell lines; assay: Proliferation assays in PPARG-activated bladder cancer cell lines; format: cell-based, human; details: 100 nM-500 nM
Description: A panel of bladder cancer cell lines with PPARG modulators in colony formation assays was then tested (FIG. 10), kinetic proliferation assays (IncuCyte Zoom; Essen Bioscience) using cell lines treated with a single concentration of compound (100 nM-500 nM), and end-point dose-response assays (CellTiter Glo or CyQuant).
This assay was expanded to include an additional 8 representative bladder cancer cell lines, including cell lines with PPARG amplification, RXRA p.S427F mutation, activated gene signature, and control cell lines with low level expression of PPARG and target genes. […] Representative data for the UM-UC-9 cell line are shown in FIG. 6B, and is tabulated for the tested bladder cancer cell lines in Table 1. […] This significant (P<0.01) preferential sensitivity to PPARG inverse-agonists, but not antagonists, is maintained across all of the PPARG-activated cell lines in the panel, including the RXRA p.S427F cell line, HT-1197 (41), the PPARG-amplified cell lines, 5637 and UM-UC-9, and the PPARG activation gene signature cell lines Cal29, UM-UC-1, and RT112/84 (FIG. 12). […] Similar results were obtained with these cell lines in parallel studies using clonogenic assays to quantify colony-forming ability (FIG. 10).
as §1

[5] = tested on: PPARG-activated pancreatic and colorectal cancer cell lines; assay: Kinetic proliferation assay in pancreatic and colorectal cancer cell lines; format: cell-based; details: 500 nM
Excerpt: To enable cell-counting, cell lines were transduced with a lentiviral vector encoding nuclear-targeted GFP (TagGFP2-H2B), and stable pools generated following selection for puromycin-resistance. Cell lines were maintained for at least 7 days following selection prior to expansion and seeding into 96-well plates for further analysis. For kinetic proliferation assays, 96-well plates were imaged in phase-contrast and green fluorescence mode every two hours using IncuCyte Zoom (Essen BioScience, Ann Arbor MI). Using IncuCyte software, the number of fluorescent nuclei were counted to monitor quantitative changes in cell number over time. Media and compounds were replaced approximately every 3-4 days.
DMSO treatment was also included as a vehicle control.

SMILES	effect on unstimulated reporter (PPARG)	effect in coactivator assay [1]	binding to PPARG LBD, competition with fluorescent ligand [2]	hierarchical clustering of gene expression signatures [3]	effect on cell proliferation compared with DMSO control (UM-UC-9 cells)	sensitivity of cell lines [4]	sensitivity of cell lines [5]
CC(C)(c1ccc(OCC2CO2)cc1)c1ccc(OCC2CO2)cc1 (centres unmarked) [BADGE, Bisphenol A diglycidyl ether]	minimal detectable effect	minimal effect	weak activity				
CCC(=O)NC[C@H](Cc1ccc(OCCc2nc(-c3ccccc3)oc2C)cc1)N/C(C)=C\C(=O)c1ccc(C(F)(F)F)cc1 [GW6471]	modest inhibitory effect						
COP(=O)(OC)OC(c1ccc(Cl)cc1)P(=O)(OC)OC (centres unmarked) [SR202, Mifobate]	minimal detectable effect	minimal effect	weak activity				
Cc1c(C)n(Cc2ccc(-c3ccccc3C(=O)O)cc2)c2ccc(C(=O)N[C@@H](C)c3ccc(C(C)(C)C)cc3)cc12 [SR2595]				cluster with vehicle-treated controls	no significant effects	not sensitive	not sensitive

Reference: US11896678B2, “Compositions and methods for treatment of peroxisome proliferator-activated receptor gamma (PPARG) activated cancer” (THE BROAD INSTITUTE, INC., priority 2017, dated 2024)
